According to patent US20150232420A1, “TRANSGLUTAMINASE TG2 INHIBITORS, PHARMACEUTICAL COMPOSITIONS, AND METHODS OF USE THEREOF” (priority 2012, published 2015):
Where two headings read alike, the source gives them in different places.

Tests used:
[1] = Liver microsomal stability (mouse); format: in vitro ADME
Procedure: (§1) Incubations of test compound (1 μM initial concentration, n=2) were carried out with pooled hepatic liver microsomes (0.25 mg protein/mL in 0.1 M phosphate buffer pH7.4). NADPH (1 mM) was added to initiate the reactions. The incubations were performed at 37° C. Samples (100 μL) were taken from the incubation at 0, 5, 10, 20 and 40 min and added to 100 μL of acetonitrile containing carbamazepine as analytical internal standard, to terminate the reaction. Samples were centrifuged and the supernatant fractions analyzed using LC-MS/MS.
(§2) For all incubations, the instrument response (i.e. chromatographic peak area or peak height, normalized by internal standard), at each time-point were referenced to the zero time-point samples (as 100%) in order to determine the percentage of compound remaining at that time-point. Plots of the natural logarithm (Ln) of the percent of parent remaining for each compound, versus time, were used to determine the half-life in the incubation of interest.
(§3) Half-life values (t1/2) were calculated from the relationship: t1/2 (min)=−0.693/λ where λ was the slope of the Ln concentration versus time curve.
For incubations in hepatic liver microsomes, the in vitro intrinsic clearance, Clint (μL/min/mg microsomal protein), was calculated using the following formula: […]

[2] = Plasma stability (mouse); format: in vitro ADME; details: pooled plasma
Procedure: (§4) Incubations of test compound (1 μM initial concentration, n=2) were carried out with pooled plasma or BSA (45 mg/mL in 0.1 M phosphate buffered saline pH 7.4). The incubations were performed at 37° C. Samples (50 μL) were obtained from the incubation at 0, 10, 30, 120, 240, 360 and 1440 min, and added to 150 μL of acetonitrile containing carbamazepine as analytical internal standard to terminate the reaction. Samples were centrifuged and the supernatant fractions analyzed using LC-MS/MS.
as §2, §3

[3] = target: T1, P-glycoprotein (P-gp) (Homo sapiens, UniProt P08183); test: Effective efflux ratio in MDCK-MDR1; format: in vitro ADME
T1 construct: host or cells: MDCKII (MDR1-MDCKII)
Procedure: (§5) The MDR1-MDCKII and wild type MDCKII cell lines were cultured in accordance with the guidelines provided by Solvo Biotechnology. Both wild-type MDCK and MDR1-MDCK cells were seeded at a cell density of 2.3×10^5 cells/well into 24-well Transwell plates and cultured for three days to form monolayers. Test compound was loaded into the donor compartments of the Transwell plate (24-well) bearing MDR1-MDCK or wild type MDCK monolayers. Test compound was added to either the apical or basolateral chambers of the Transwell plate assembly at a concentration of 10 μM in Hanks' Balanced Salt Solution containing 25 mM HEPES (pH 7.4). Lucifer Yellow was added to the apical buffer in all wells and its permeation monitored to assess integrity of the cell layer. As Lucifer Yellow (LY) cannot freely permeate lipophilic barriers, a high degree of LY transport indicates poor integrity of the cell layer and wells with LY permeability >100 nm/s are rejected.
P-glycoprotein (P-gp) is one of the main efflux transporters in brain; the potential for compound 1 and compound 2 to be effluxed by P-gp was assessed in an MDCK-MDR1 transfected cell line.

[4] = Permeability in wild type MDCK monolayers; format: in vitro ADME; details: dog; wild type MDCK, apical to basolateral, 10 μM, pH 7.4; read-out: MDCK-WT Papp A-B
Procedure: as §5

[5] = test system: wild type MDCKII cell line; test: Permeability in wild type MDCK monolayers; format: in vitro ADME; details: MDCK study; in words
Procedure: as §5

[6] = kinetic solubility assay; format: physicochemical
[7] = target: T2, human TG2 (Homo sapiens, UniProt P21980); test: fluorescent screening assay for human TG2; format: biochemical
T2 sequence (P21980 1-687): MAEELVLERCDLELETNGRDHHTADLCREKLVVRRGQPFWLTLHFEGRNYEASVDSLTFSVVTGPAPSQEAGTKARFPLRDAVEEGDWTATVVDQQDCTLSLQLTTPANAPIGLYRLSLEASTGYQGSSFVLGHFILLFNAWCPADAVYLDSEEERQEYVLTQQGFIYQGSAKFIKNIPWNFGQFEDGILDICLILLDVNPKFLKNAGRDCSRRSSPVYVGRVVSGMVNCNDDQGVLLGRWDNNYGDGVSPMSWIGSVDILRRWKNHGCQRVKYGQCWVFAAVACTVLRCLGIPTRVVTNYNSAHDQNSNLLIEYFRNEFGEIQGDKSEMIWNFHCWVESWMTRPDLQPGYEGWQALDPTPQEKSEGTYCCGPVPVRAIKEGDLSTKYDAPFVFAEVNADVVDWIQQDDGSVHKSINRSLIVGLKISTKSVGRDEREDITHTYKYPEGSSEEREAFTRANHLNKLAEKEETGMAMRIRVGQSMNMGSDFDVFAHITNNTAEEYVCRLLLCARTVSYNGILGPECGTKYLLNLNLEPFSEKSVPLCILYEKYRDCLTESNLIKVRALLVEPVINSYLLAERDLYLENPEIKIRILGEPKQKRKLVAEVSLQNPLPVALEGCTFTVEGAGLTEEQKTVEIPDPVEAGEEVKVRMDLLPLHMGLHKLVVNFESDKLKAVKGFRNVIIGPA
Procedure: The fluorescent screening assay for human TG2 was performed as described herein: Assay conditions were 20 nM TG2, 8 μM N,N-dimethylated Casein (NMC) and 16 μM K×D (used for all transglutaminase assays) in 25 mM Hepes, pH 7.4, 250 mM NaCl, 2 mM MgCl2, 0.5 mM CaCl2, 0.2 mM DTT, 0.05% Pluronic F-127 at 37° C. A time point was taken with a microplate reader (Safire or Ultra, Tecan; ex: 350 nm, em: 535 nm) every 3 minutes for up to 2 hours and the initial linear reaction progress was used to determine the reaction velocity as a measure for enzyme activity. Assay conditions were identical for human TG6 and similar for human TG1 and mouse TG2 apart from enzyme concentration (mTG2 at 5 nM; TG1 at 10 nM) and CaCl2 concentration (0.2 mM for mTG2; 0.05 mM for TG1). Factor XIIIa was activated using 0.1 μg/μl thrombin (Sigma) in 35 mM Tris pH 8.0 for 20 min at 30° C. and the transamidation reaction was performed with 20 nM Factor XIIIa in 50 mM Tris pH 8.0, 1.25 mM CaCl2, 0.05% Pluronic, 0.2 mM DTT. TG3 was activated with 0.02 μg/μl thrombin under the same conditions as Factor XIIIa and assay conditions were 10 nM TG3 in 50 mM Hepes, pH 8, 20 mM CaCl2, 0.2 mM DTT, 0.05% Pluronic F-127.

[8] = Plasma stability (human); format: in vitro ADME; details: pooled plasma
Procedure: as §4, §2, §3

[9] = Liver microsomal stability (human); format: in vitro ADME
Procedure: as §1, §2, §3
For incubations in hepatic liver microsomes, the in vitro intrinsic clearance, Clint (μL/min/mg microsomal protein), was calculated using the following formula:
Clint=(0.693/t1/2 microsomal)*(ml incubation/mg microsomal protein)*(mg microsomal protein/g liver)*(g liver/kg body weight)

T1 sequence (P08183 whole entry): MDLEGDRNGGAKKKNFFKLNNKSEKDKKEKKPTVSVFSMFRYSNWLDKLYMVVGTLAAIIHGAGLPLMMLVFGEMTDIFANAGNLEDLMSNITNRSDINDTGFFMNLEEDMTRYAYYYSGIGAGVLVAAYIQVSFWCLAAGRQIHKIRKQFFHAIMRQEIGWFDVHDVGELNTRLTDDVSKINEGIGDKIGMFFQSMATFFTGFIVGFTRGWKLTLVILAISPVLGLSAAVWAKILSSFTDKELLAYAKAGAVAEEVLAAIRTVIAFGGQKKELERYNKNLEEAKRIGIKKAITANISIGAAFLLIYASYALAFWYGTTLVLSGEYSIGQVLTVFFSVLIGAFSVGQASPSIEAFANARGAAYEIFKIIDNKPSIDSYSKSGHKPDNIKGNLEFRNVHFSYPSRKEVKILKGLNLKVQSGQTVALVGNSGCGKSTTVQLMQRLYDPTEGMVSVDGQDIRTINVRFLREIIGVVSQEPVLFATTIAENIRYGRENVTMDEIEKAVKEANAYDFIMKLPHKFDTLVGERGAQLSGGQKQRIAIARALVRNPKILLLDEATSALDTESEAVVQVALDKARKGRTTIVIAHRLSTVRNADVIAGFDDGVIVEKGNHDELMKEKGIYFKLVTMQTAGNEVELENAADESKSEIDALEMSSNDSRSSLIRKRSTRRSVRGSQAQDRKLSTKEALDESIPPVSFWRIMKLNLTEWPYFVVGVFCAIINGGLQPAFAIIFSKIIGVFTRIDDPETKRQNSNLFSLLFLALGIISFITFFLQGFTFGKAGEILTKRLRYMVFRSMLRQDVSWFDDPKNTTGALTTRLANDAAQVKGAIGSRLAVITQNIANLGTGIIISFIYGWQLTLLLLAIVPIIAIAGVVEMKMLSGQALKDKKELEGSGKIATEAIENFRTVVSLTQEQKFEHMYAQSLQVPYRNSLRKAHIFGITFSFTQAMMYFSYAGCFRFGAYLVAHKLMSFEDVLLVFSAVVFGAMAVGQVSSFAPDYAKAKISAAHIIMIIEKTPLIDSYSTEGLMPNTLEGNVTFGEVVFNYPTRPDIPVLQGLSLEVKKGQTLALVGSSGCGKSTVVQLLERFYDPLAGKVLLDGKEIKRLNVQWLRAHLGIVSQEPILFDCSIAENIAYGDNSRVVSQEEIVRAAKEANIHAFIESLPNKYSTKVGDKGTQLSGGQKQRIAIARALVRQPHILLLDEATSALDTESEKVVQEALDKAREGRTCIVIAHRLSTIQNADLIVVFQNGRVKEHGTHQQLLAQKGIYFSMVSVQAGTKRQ

metabolic stability in liver microsomal stability testing ([1]; mouse, in words): poor
microsomal CLint at 1 μM ([1]; pooled liver microsomes, pH 7.4, mouse liver microsomes, 1 μM, 0.25 mg protein/mL, NADPH, read-out: mLM Clint): > 1390 µL/min/mg
half-life at 1 μM ([2]; mouse plasma, 1 μM, 37° C., read-out: Mouse Plasma T1/2): > 8 h
half-life at 1 μM ([2]; read-out: half-life in mouse plasma): > 24 h
active efflux via P-gp ([3]; MDCK-MDR1 transfected cell line, in words): high active efflux
MDCK-MDR1 EER ([3]; effective efflux ratio, 10 μM): 7.1
Papp A→B at 10 μM [4]: 30.3 ×10⁻⁶ cm/s
permeability [5]: good permeability
solubility in a kinetic solubility assay ([6]; in words): good solubility
Aq. Sol. ([6]; kinetic solubility): 0.06 mg/mL
IC50 ([7]; Table 7, 20 nM TG2, 37° C., read-out: IC50): < 100 nM
IC50 ([7]; Table 8, read-out: TG2 IC50): 60 nM
half-life at 1 μM ([8]; human plasma, 1 μM, 37° C., read-out: Human Plasma T1/2): > 8 h
half-life at 1 μM ([8]; read-out: half-life in human plasma): > 24 h
metabolic stability in liver microsomal stability testing ([9]; human, in words): poor
microsomal CLint at 1 μM ([9]; pooled liver microsomes, pH 7.4, human liver microsomes, 1 μM, 0.25 mg protein/mL, NADPH, read-out: hLM Clint): > 1390 µL/min/mg
SMILES: C=CC(=O)NCCCC[C@H](NC(=O)Cc1ccccc1)C(=O)N1CCN(c2cccc(C)n2)CC1 [compound 2, N-[(5S)-6-[4-(6-methylpyridin-2-yl)piperazin-1-yl]-6-oxo-5-(2-phenylacetamido)hexyl]prop-2-enamide]
